# Entries after “also recorded” stand apart in the source; their conditions may differ.
# What was measured:
# CAR-T cells [1] = assay: Cytokine measurement of CAR-T cells on day 2 and day 8 (Example 7); assay type: cell-based, human; details: for cytokine release without any treatment: day 2 and 8 post production, FIG. 23, FIG. 24; for autoactivation (cytokine release in the absence of small molecule): no treatment
# Text: (§1) In this study, lentiviral (pLVX) constructs were generated comprising an SFFV promoter followed by a kozak sequence, the inducible chimeric cytokine receptor, a T2A sequence, and a chimeric antigen receptor. The chimeric antigen receptor was directed towards cells expressing EGFRvIII. For comparison, lentiviral constructs with either TagBFP or GoCART instead of the inducible chimeric cytokine receptor were used. GoCART consists of a myristoylation sequence followed by a portion of MyD88 and CD40 fused to two repeats of FKBP(F36V).
# (§2) The T cells were transduced with lentivirus 2 days after isolation, and 3 days later were FACS sorted by binding APC-labeled EGFRvIII. The sorted EGFRvIII+ cells were cultured until 14 days post isolation.
# Cytokines were measured on day 2 and day 8. AP1903 data is shown FIG. 20 and FIG. 21. All values were normalized to untreated TagBFP-expressing CAR-T Cells. […] The IFN-related tails do incur some cytokine release.
# Induction of cytokines at day 2 and 8 post production without any treatment was measured.
# CAR-T cells [2] = assay: Phenotyping of CAR-T cells at day 8 post production (Example 7); assay type: cell-based, human; details: for cell phenotype after growth with AP1903: FIG. 18, FIG. 19
# Text: as §1, §2
# At day 8 post production growth with AP1903 or IL2, cells were phenotyped.
# CAR-T cells [3] = assay: Live cell count and viability of EGFRvIII CAR-T cells grown with IL2, AP1903 or no treatment (Example 7); assay type: cell-based, human; details: for CAR-T cell growth with AP1903 (live cell count) / CAR-T cell viability with AP1903: EGFRvIII CAR-T cells; for CAR-T cell growth with AP1903 (live cell count): 8 days post production, FIG. 16; for CAR-T cell viability with AP1903: FIG. 17
# Text: as §1, §2
# At day 14, the 0.5e6 cells were resuspended in a 24-well plate, and grown with either IL2, AP1903, or no treatment for 8 days post production.
# STAT4 = STAT4 luciferase reporter assay comparing tyrosine kinase activating domains in HEK293 cells co-transfected with STAT4 (Example 5A); assay type: cell-based; details: for basal signaling: without ligand
# Text: For this study, several tyrosine kinase activating domains were compared using a otherwise identical inducible cytokine receptor design. The tyrosine effector domain consists of a STAT5-activating sequence from IL7R fused to a STAT4-activating sequence from IL12Rb2. Each construct contains a membrane-targeting motif (CD8 SS), a dimerization domain (FKBP(F36V)), a tyrosine kinase activating domain derived from either the EpoR, GP130, PrIR, GHR, GCSFR, or TPOR/MPLR receptors, and a tyrosine effector domain consisting of the IL7R(316-459) cytotail fused to the IL12Rb2(775-825) peptide. Chimeric cytokine receptors also include an epitope tag for detection (Myc). The following inducible chimeric cytokine receptors were tested in this study:
# HEK293 cells were transfected with constructs encoding the above inducible chimeric cytokine receptors, and a luciferase reporter for either STAT4 or STAT5. The luciferase reporters (Promega) encoded a luciferase under the control of either a STAT4 or STAT5 responsive element. As HEK293 cells lack STAT4, in wells transfected with the STAT4 reporter, a plasmid encoding constitutively-expressed STAT4 was transfected as well added. Transfected EpoR, GHR, and IL12Rb1+IL12Rb2 (the IL12 receptor) were used as positive controls. The ligand added to inducible chimeric cytokine receptors was AP1903. Epo was added to EpoR transfected cells, Growth Hormone to GHR transfected cells, and IL-12 to IL12 receptor transfected cells
# STAT5 [4] = assay: STAT5 signaling by IL7Ra, IL2Rb and IFNAR2 derived cytotail fragments (Example 6, FIG. 11); assay type: cell-based; details: EpoR(237-338; L241G, L242P) tyrosine kinase activating domain, short (8 h) AP1903 treatment
# Description: In this study, IL2Rb, IL7R, and […] cytotails were analyzed to identify tyrosines sufficient for key aspects of signaling. For instance, a segment of IL2Rb containing the STAT5-interacting tyrosines Y418 and Y436 might retain STAT5 signaling, but may lose PI3K signaling as this requires Y364 of the IL2Rb cytotail. Inducible chimeric cytokine receptors comprising the IL7R, IL2Rb, and IFNAR2 tails may include one or more tyrosine motifs within the cytotails. Elimination of one or more portions of the tail (e.g., the IL12Rb2 tail) in some cases results in removal of negative regulatory motifs and stronger signaling.
# In this study, signaling by a variety of IL7Ra and IL2Rb derived fragments using the EpoR-based tyrosine kinase activating domain were tested. The following inducible chimeric cytokine receptors were tested in this study:
# Constructs that are plotted include tyrosine effector domains derived from the IL7R and IL2Rb cytotails.
# [5] = tested on: BCMA(1-54), TACI(1-165) and BAFFR(1-78) ectodomain chimeric cytokine receptors; assay: HEK293T Stat reporter assay of TNFR2 superfamily ectodomain receptors with soluble BAFF trimers (Example 14); assay type: cell-based; details: 5 hours post-treatment
# Text: To test if the panel of ligand inducers and ectodomains can be further extended beyond the AP1903-FKBP(F36V) pairing, we tested signaling in response to other multimeric ligand inducers. As the Tumor Necrosis Family (TNF) superfamily of ligands are trimers, they engage their respective receptors in a multimeric fashion. Therefore, we fused ectodomains derived from the TNFR2 superfamily receptors, such as BCMA(1-54), TACI(1-165) and BAFFR(1-78), to the transmembrane and signaling domains of our chimeric cytokine receptors, and tested signaling in response to soluble trimeric ligand. Briefly, 20,000 HEK293T cells were plated into each well of a poly-L-lysine-coated 96-well flat-bottom plate and allowed to adhere overnight. The chimeric cytokine receptor (2.5 ng), a Stat response element that drives Firefly Luciferase (100 ng; Promega) and Renilla Luciferase control reporter vector (1 ng; Promega) were mixed in a final volume of 5 uL in Opti-MEM (Gibco) (“DNA mix”). 0.3 uL Lipofectamine 2000 (Invitrogen) in 5 uL Opti-MEM was incubated at room temperature for 5 minutes and then added to the DNA mix. […] 24 hours after transfection, cells were either left untreated, or treated with soluble BAFF or APRIL trimers diluted in serum-free media, and Stat reporter activity was determined 5 hours post-treatment using the Dual-Glo Luciferase Assay System (Promega). […]
# STAT5 [6] = assay: STAT5 luciferase reporter assay of small-molecule inducible Epo receptors in HEK293T cells (Example 2); assay type: cell-based; details: AP1903 added vs no ligand, FIG. 4
# Text: According to the construct name, receptors contain a membrane-targeting motif (CD8 signal sequence (CD8 SS) or myristoyl), a dimerization domain (FKBP(F36V) or mutants thereof), a portion of the EpoR that contains a transmembrane (EpoR(237-272)), a JAK2 binding motif (EpoR(273-338)), and/or a tyrosine effector domain (EpoR(339-508)). Constructs may also include epitope tags (Myc or V5) for western blot or flow analyses.
# Vectors encoding the inducible chimeric cytokine receptors were transfected into HEK293T cells along with a luciferase reporter for the STAT5 transcription factor (Promega E4651). The reporter vector consists of a firefly luficerase expressed under the control of a STAT5 responsive DNA element. Upon addition of erythropoietin (Epo), the erythropoietin receptor (EpoR) activates the JAK2 kinase which then phosphorylates tyrosines on the EpoR cytotail to generate binding sites for STAT5. […] Epo was added to samples with cells transfected with EpoR, and AP1903 was added to the samples with cells transfected with fusions of the EpoR to FKBP. No Epo or AP1903 was added to samples to assess baseline signaling. In FIG. 4, “ligand” is either Epo or AP1903.
molecule,measurement,setting,value
"CD8 SS-Myc-FKBP(F36V)-EpoR(237-338; L241G, L242P)-IL7R(316-459): inducible chimeric cytokine receptor",cytokine release without any treatment,CAR-T cells [1],No cytokine release was observed
same,cell phenotype after growth with AP1903,CAR-T cells [2],more stem cell memory
same,CAR-T cell growth with AP1903 (live cell count),CAR-T cells [3],robust growth
same,CAR-T cell viability with AP1903,CAR-T cells [3],higher viability with AP1903 comparable to IL2 treatment
"CD8 SS-Myc-FKBP(F36V)-EpoR(237-338; L241G, L242P)-IL2Rb(333-551): inducible chimeric cytokine receptor",cytokine release without any treatment,CAR-T cells [1],"release IL13 and some TNFa (day 2, FIG. 23) that diminishes by day 8"
same,autoactivation (cytokine release in the absence of small molecule),CAR-T cells [1]; day 2 and day 8,mildly autoactivating
same,CAR-T cell growth with AP1903 (live cell count),CAR-T cells [3],slight growth
"CD8 SS-Myc-FKBP(F36V)-EpoR(237-338; L241G, L242P)-IL12Rb2(775-825): inducible chimeric cytokine receptor",STAT4 signaling when used as a tyrosine effector domain,"STAT4; peptide containing Y800, see Examples 3 and 5",sufficient to provide STAT4 signaling
"CD8 SS-Myc-FKBP(F36V)-EpoR(237-338; L241G, L242P)-IL7R(376-416, 424-459; Y456F): inducible chimeric cytokine receptor",STAT5 signaling of cytotail fragments,STAT5 [4],fully recreated
GoCART: myristoylation sequence followed by a portion of MyD88 and CD40 fused to two repeats of FKBP(F36V); previously reported multimerizer [reference compound],cytokine release without any treatment,CAR-T cells [1],"GM-CSF, IL5, IL13, IL22, and MIP1a at day 2 and more so at day 8"
same,cytokine release with AP1903,"CAR-T cells [1]; day 2 and day 8, normalized to untreated TagBFP-expressing CAR-T Cells, FIG. 20, FIG. 21",robust cytokine release
same,autoactivation (cytokine release in the absence of small molecule),CAR-T cells [1]; day 2 and day 8,strongly so
same,cell phenotype after growth with AP1903,CAR-T cells [2],less stem cell memory and more effector memory
same,cell phenotype when grown further with IL2,CAR-T cells [2]; IL2,somewhat more differentiated
same,CAR-T cell growth with AP1903 (live cell count),CAR-T cells [3],slight growth
same,CAR-T cell viability with AP1903,CAR-T cells [3],higher viability with AP1903 comparable to IL2 treatment
"CD8 SS-Myc-FKBP(F36V)-EpoR(237-338; L241G, L242P)-IL7R(316-459)-IL12Rb2(775-825): inducible chimeric cytokine receptor",basal signaling,STAT4; FIG. 9,lowest basal signaling
"BAFF: soluble BAFF trimers, TNF superfamily ligand",Stat5 reporter activity,[5]; FIG. 37C,induced Stat5 and Stat4 activation
same,Stat4 reporter activity,[5]; FIG. 37D,induced Stat5 and Stat4 activation
"CD8 SS-Myc-FKBP(F36V)-EpoR(237-508; L241G, L242P)-V5: inducible chimeric cytokine receptor",STAT5 reporter signaling with ligand,STAT5 [6],closest to the EpoR(1-508) positive control; also recorded: robust activity
"CD8 SS-Myc-FKBP(F36V)-EpoR(237-338; L241G, L242P)-IL2Rb(393-433, 518-551): inducible chimeric cytokine receptor",STAT5 signaling of cytotail fragments,STAT5 [4],far greater signaling
CD8 SS-Myc-FKBP(F36V)-GCSFR(614-710)-IL7R(316-459)-IL12Rb2(775-825): inducible chimeric cytokine receptor,signaling for STAT4,"STAT4; AP1903, FIG. 9",strongest signaling for STAT4
same,basal signaling,STAT4; FIG. 9,had basal signaling
"CD8 SS-Myc-FKBP(F36V)-EpoR(237-338; L241G, L242P)-IFNAR2(310-515): inducible chimeric cytokine receptor (protein) KKKVWDYNYDDESDSDTEAAPRTSGGGYTMHGLTVRPLGQASATSTESQLIDPESEEEPDLPEVDVELPTMPKDSPQQLELLSGPCERRKSPLQDPFPEEDYSSTEGSGGRITFNVDLNSVFLRVLDDEDSDDLEAPLMLSSHLEEMVDPEDPDNVQSNHLLASGEGTQPTFPSPSSEGLWSEDAPSDQSDTSESDVDLGDGYIMR",IL-2 consumption,CAR-T cells [1]; Day 8 cytokine measurements,did not consume as much IL-2
same,cytokine release without any treatment,CAR-T cells [1],constitutively release small amounts of IL5
same,autoactivation (cytokine release in the absence of small molecule),CAR-T cells [1]; day 2 and day 8,mildly autoactivating
same,CAR-T cell counts on post-production day 5 and day 8,CAR-T cells [3]; FIG. 25,least growth
same,growth without signaling,"CAR-T cells [3]; no treatment, over a week, FIG. 22",some less growth

# — patent US12163169B2, “Inducible chimeric cytokine receptors” (Allogene Therapeutics, Inc., priority 2018, dated 2024)
